According to US20110112124A1, “FUNGICIDAL COMPOSITIONS” (SYNGENTA CROP PROTECTION, INC., priority 2008, published 2011):
Read-outs that look alike come from different tables or passages of the source.

Columns and labels:
[1] = tested on: Botryotinia fuckeliana (Botrytis cinerea); experiment: Example B1: liquid culture test, gray mould; assay type: cell-based
[2] = tested on: Mycosphaerella graminicola (Septoria tritici); experiment: Example B6: liquid culture test, Septoria blotch; assay type: cell-based
[3] = tested on: Mycosphaerella arachidis (Cercospora arachidicola); experiment: Example B4: liquid culture test, early leaf spot; assay type: cell-based
[4] = tested on: Mycosphaerella graminicola (Septoria tritici); experiment: Example B9: liquid culture test, Septoria blotch; assay type: cell-based
[5] = tested on: Botryotinia fuckeliana (Botrytis cinerea); experiment: Example B16: liquid culture test, gray mould; assay type: cell-based
Fusarium culmorum = assay type: cell-based
Pythium ultimum = experiment: Example B2: liquid culture test, seedling damping off; assay type: cell-based
[6] = tested on: Botryotinia fuckeliana (Botrytis cinerea); experiment: Example B11: liquid culture test, gray mould; assay type: cell-based
[7] = tested on: Mycosphaerella graminicola (Septoria tritici); experiment: Example B13: liquid culture test, Septoria blotch; assay type: cell-based
[8] = tested on: Mycosphaerella graminicola (Septoria tritici); experiment: Example B17: liquid culture test, Septoria blotch; assay type: cell-based
Plasmopara viticola = experiment: Example B18: grape leaf disc preventative test
Method: Leaf disks or leaf segments of various plant species were cut from plants grown in the greenhouse. The cut leaf disks or segments were placed in multiwell plates (24-well format) onto water agar. The leaf disks were sprayed with a test solution before (preventative) or after (curative) inoculation. Compounds to be tested were prepared as DMSO solutions (max. 10 mg/ml) which were diluted to the appropriate concentration with 0.025% Tween20 just before spraying. The inoculated leaf disks or segments were incubated under defined conditions (temperature, relative humidity, light, etc.) according to the respective test system. A single evaluation of disease level was carried out 3-9 days after inoculation, depending on the pathosystem. Percent disease control relative to the untreated check leaf disks or segments was then calculated.
The leaf disks were inoculated with a spore suspension of the fungus 1 day after application. The inoculated leaf disks were incubated at 19° C. and 80% rh under a light regime of 12 h light/12 h darkness in a climate cabinet and the activity of a compound was assessed as percent disease control compared to untreated when an appropriate level of disease damage appears in untreated check leaf disks (6-8 days after application).

[9] = tested on: Tapesia yallundae W-type (Pseudocercosporella herpotrichoides); experiment: Example B14: liquid culture test, eyespot; assay type: cell-based
Sclerotinia sclerotiorum [10] = experiment: Example B8: liquid culture test, cottony rot; assay type: cell-based
[11] = tested on: Tapesia yallundae W-type (Pseudocercosporella herpotrichoides); experiment: Example B10: liquid culture test, eyespot; assay type: cell-based
[12] = tested on: Thanatephorus cucumeris (Rhizoctonia solani); experiment: Example B15: liquid culture test, foot rot, damping-off; assay type: cell-based
Sclerotinia sclerotiorum [13] = experiment: Example B3: liquid culture test, cottony rot; assay type: cell-based
[14] = tested on: Tapesia yallundae W-type (Pseudocercosporella herpotrichoides); experiment: Example B5: liquid culture test, eyespot; assay type: cell-based
[15] = tested on: Tapesia yallundae W-type (Pseudocercosporella herpotrichoides); experiment: Example B7: liquid culture test, eyespot; assay type: cell-based

## COC(c1ccc(Cl)cc1Cl)C(C)NC(=O)c1cn(C)nc1C(F)F (racemic) [Comp. 1.001, 3-difluoromethyl-1-methyl-1H-pyrazole-4-carboxylic acid [2-(2,4-dichlorophenyl)-2-methoxy-1-methyl-ethyl]-amide]
[1]; 0.063 ppm
  % action: 20%
[1]; 0.125 ppm
  % action: 20%
[1]; 0.250 ppm
  % action: 50%
[1]; 0.500 ppm
  % action: 50%
[1]; 1.000 ppm
  % action: 70%
[2]; 0.156 ppm
  % action: 70%
[2]; 0.313 ppm
  % action: 90%
[3]; 0.039 ppm
  % action: 0%
[3]; 0.078 ppm
  % action: 20%
[4]; 0.078 ppm
  % action: 20%
[4]; 0.156 ppm
  % action: 70%
[5]; 0.016 ppm
  % action: 0%
[5]; 0.031 ppm
  % action: 0%
[5]; 0.063 ppm
  % action: 20%
[5]; 0.125 ppm
  % action: 20%
Fusarium culmorum; 0.063 ppm
  % action: 0%
Fusarium culmorum; 0.125 ppm
  % action: 0%
Fusarium culmorum; 0.250 ppm
  % action: 0%
Fusarium culmorum; 0.500 ppm
  % action: 0%
Fusarium culmorum; 1.000 ppm
  % action: 0%
Fusarium culmorum; 2.000 ppm
  % action: 20%
Pythium ultimum; 2.500 ppm
  % action: 0%
Pythium ultimum; 5.000 ppm
  % action: 0%
Pythium ultimum; 10.000 ppm
  % action: 0%
Pythium ultimum; 20.000 ppm
  % action: 0%
[6]; 0.031 ppm
  % action: 0%
[6]; 0.063 ppm
  % action: 0%
[6]; 0.125 ppm
  % action: 20%
[6]; 0.250 ppm
  % action: 20%
[6]; 0.500 ppm
  % action: 50%
[7]; 0.078 ppm
  % action: 20%
[7]; 0.156 ppm
  % action: 70%
[8]; 0.016 ppm
  % action: 0%
[8]; 0.031 ppm
  % action: 0%
[8]; 0.063 ppm
  % action: 20%
[8]; 0.125 ppm
  % action: 50%
Plasmopara viticola; 0.625 ppm
  % action: 0%
Plasmopara viticola; 1.250 ppm
  % action: 0%
Plasmopara viticola; 2.500 ppm
  % action: 0%
Plasmopara viticola; 5.000 ppm
  % action: 7%
Plasmopara viticola; 10.000 ppm
  % action: 0%
[9]; 0.156 ppm
  % action: 20%
[9]; 0.313 ppm
  % action: 20%
[9]; 0.625 ppm
  % action: 50%
[9]; 1.250 ppm
  % action: 70%
Sclerotinia sclerotiorum [10]; 0.078 ppm
  % action: 0%
Sclerotinia sclerotiorum [10]; 0.156 ppm
  % action: 0%
Sclerotinia sclerotiorum [10]; 0.313 ppm
  % action: 20%
Sclerotinia sclerotiorum [10]; 0.625 ppm
  % action: 50%
Sclerotinia sclerotiorum [10]; 1.250 ppm
  % action: 70%
[11]; 0.078 ppm
  % action: 0%
[11]; 0.156 ppm
  % action: 0%
[11]; 0.313 ppm
  % action: 20%
[11]; 0.625 ppm
  % action: 20%
[11]; 1.250 ppm
  % action: 50%
[12]; 0.250 ppm
  % action: 0%
[12]; 0.500 ppm
  % action: 0%
[12]; 1.000 ppm
  % action: 0%
[12]; 2.000 ppm
  % action: 0%
Sclerotinia sclerotiorum [13]; 0.313 ppm
  % action: 20%
Sclerotinia sclerotiorum [13]; 0.625 ppm
  % action: 50%
Sclerotinia sclerotiorum [13]; 1.250 ppm
  % action: 70%
[14]; 0.156 ppm
  % action: 0%
[14]; 0.313 ppm
  % action: 20%
[14]; 0.625 ppm
  % action: 50%
[14]; 1.250 ppm
  % action: 70%
[15]; 0.039 ppm
  % action: 0%
[15]; 0.078 ppm
  % action: 0%
[15]; 0.156 ppm
  % action: 20%
[15]; 0.313 ppm
  % action: 20%
[15]; 0.625 ppm
  % action: 50%
[15]; 1.250 ppm
  % action: 70%

## CO/C=C(/C(=O)OC)c1ccccc1Oc1cc(Oc2ccccc2C#N)ncn1 [Azoxystrobin, azoxystrobin]
[1]; 0.063 ppm
  % action: 0%
[1]; 0.125 ppm
  % action: 20%
[1]; 0.250 ppm
  % action: 20%
[1]; 0.500 ppm
  % action: 50%
[1]; 1.000 ppm
  % action: 50%
[1]; 2.000 ppm
  % action: 50%
[3]; 0.039 ppm
  % action: 20%
[3]; 0.078 ppm
  % action: 50%
[3]; 0.156 ppm
  % action: 70%
Pythium ultimum; 10.000 ppm
  % action: 50%
Pythium ultimum; 20.000 ppm
  % action: 70%
Sclerotinia sclerotiorum [13]; 0.625 ppm
  % action: 0%
Sclerotinia sclerotiorum [13]; 1.250 ppm
  % action: 20%
Sclerotinia sclerotiorum [13]; 2.500 ppm
  % action: 20%
Sclerotinia sclerotiorum [13]; 5.000 ppm
  % action: 50%
[14]; 0.078 ppm
  % action: 0%
[14]; 0.156 ppm
  % action: 0%
[14]; 0.313 ppm
  % action: 20%
[14]; 0.625 ppm
  % action: 20%
[14]; 1.250 ppm
  % action: 20%
[14]; 2.500 ppm
  % action: 20%
[14]; 5.000 ppm
  % action: 20%

## N#Cc1c(Cl)c(Cl)c(Cl)c(C#N)c1Cl [Chlorothalonil, chlorothalonil, reference compound]
[4]; 0.078 ppm
  % action: 20%
[4]; 0.156 ppm
  % action: 50%
Sclerotinia sclerotiorum [10]; 0.156 ppm
  % action: 0%
Sclerotinia sclerotiorum [10]; 0.313 ppm
  % action: 20%
Sclerotinia sclerotiorum [10]; 0.625 ppm
  % action: 90%
[11]; 0.156 ppm
  % action: 20%
[11]; 0.313 ppm
  % action: 20%

## Cc1cc(C2CC2)nc(Nc2ccccc2)n1 [Cyprodinil, cyprodinil]
[2]; 0.156 ppm
  % action: 0%
[2]; 0.313 ppm
  % action: 0%
[2]; 0.625 ppm
  % action: 0%
[2]; 1.250 ppm
  % action: 0%
[15]; 0.039 ppm
  % action: 0%
[15]; 0.078 ppm
  % action: 0%
[15]; 0.156 ppm
  % action: 0%
[15]; 0.313 ppm
  % action: 0%
[15]; 0.625 ppm
  % action: 0%
[15]; 1.250 ppm
  % action: 0%
[15]; 2.500 ppm
  % action: 0%
[15]; 5.000 ppm
  % action: 0%

## N#Cc1c[nH]cc1-c1cccc2c1OC(F)(F)O2 [Fludioxonil, fludioxonil, reference compound]
Fusarium culmorum; 0.250 ppm
  % action: 20%
Fusarium culmorum; 0.500 ppm
  % action: 70%
[6]; 0.063 ppm
  % action: 20%
[6]; 0.125 ppm
  % action: 70%

## C#CCOc1ccc(CCNC(=O)C(OCC#C)c2ccc(Cl)cc2)cc1OC (stereo not drawn) [Mandipropamid, mandipropamid, reference compound]
Plasmopara viticola; 0.625 ppm
  % action: 30%
Plasmopara viticola; 1.250 ppm
  % action: 37%
Plasmopara viticola; 2.500 ppm
  % action: 67%

## CCCC(Cn1cncn1)c1ccc(Cl)cc1Cl (stereo not drawn) [Penconazole, penconazole]
[7]; 0.078 ppm
  % action: 0%
[7]; 0.156 ppm
  % action: 0%
[7]; 0.313 ppm
  % action: 0%
[7]; 0.625 ppm
  % action: 20%

## CC(C)(C)C(O)(CCc1ccc(Cl)cc1)Cn1cncn1 (stereo not drawn) [Tebuconazol, tebuconazole, reference compound]
[9]; 0.625 ppm
  % action: 20%

## CC(C)C1C2CCC1c1c(NC(=O)c3cn(C)nc3C(F)F)cccc12 (stereo not drawn) [isopyrazam, reference compound]
[5]; 0.031 ppm
  % action: 20%
[5]; 0.063 ppm
  % action: 20%
[8]; 0.031 ppm
  % action: 0%
[8]; 0.063 ppm
  % action: 20%
[8]; 0.125 ppm
  % action: 70%
[12]; 0.125 ppm
  % action: 50%
[12]; 0.250 ppm
  % action: 70%
[12]; 0.500 ppm
  % action: 70%
[12]; 1.000 ppm
  % action: 70%
[12]; 2.000 ppm
  % action: 70%
